Patent publication US20200079793A1, “COMPOUNDS AND METHODS FOR MODULATING ADENOSINE A2B RECEPTOR AND ADENOSINE A2A RECEPTOR” (CORVUS PHARMACEUTICALS, INC., priority 2018, published 2020)

Legend:
A3R = molecular target: T1, A3R (Homo sapiens, UniProt P0DMS8); assay: Activity assay of adenosine receptor modulators, A3R cAMP (Table 1); format: cell-based
T1 sequence (P0DMS8 1-318): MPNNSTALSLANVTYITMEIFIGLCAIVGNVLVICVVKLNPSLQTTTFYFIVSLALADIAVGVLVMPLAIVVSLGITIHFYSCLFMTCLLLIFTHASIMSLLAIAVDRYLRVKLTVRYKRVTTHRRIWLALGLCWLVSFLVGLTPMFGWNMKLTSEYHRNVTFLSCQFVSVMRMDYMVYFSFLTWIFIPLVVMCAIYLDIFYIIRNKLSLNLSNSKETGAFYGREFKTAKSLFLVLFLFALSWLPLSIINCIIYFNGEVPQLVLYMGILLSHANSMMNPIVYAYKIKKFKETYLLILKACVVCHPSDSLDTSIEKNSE
Procedure: (§1) Compounds (e.g., adenosine receptor modulators) were tested for its biological activity. The assay results in Table 1 indicate (+ means >1 μM; ++ means 100 nM to 1 μM; +++ means <100 nM).

Adenosine A2A Receptor = Adenosine A2A Receptor (Homo sapiens, UniProt P29274); assay: Activity assay of adenosine receptor modulators, Adenosine A2A Receptor (Table 1); format: biochemical; settings: cAMP; read-out: A2AR cAMP IC50
Procedure: as §1

Adenosine A2B Receptor = molecular target: T2, Adenosine A2B Receptor (Homo sapiens, UniProt P29275); assay: Activity assay of adenosine receptor modulators, Adenosine A2B Receptor (Table 1); format: biochemical; settings: cAMP; read-out: A2BR cAMP IC50
T2 sequence (P29275 1-332): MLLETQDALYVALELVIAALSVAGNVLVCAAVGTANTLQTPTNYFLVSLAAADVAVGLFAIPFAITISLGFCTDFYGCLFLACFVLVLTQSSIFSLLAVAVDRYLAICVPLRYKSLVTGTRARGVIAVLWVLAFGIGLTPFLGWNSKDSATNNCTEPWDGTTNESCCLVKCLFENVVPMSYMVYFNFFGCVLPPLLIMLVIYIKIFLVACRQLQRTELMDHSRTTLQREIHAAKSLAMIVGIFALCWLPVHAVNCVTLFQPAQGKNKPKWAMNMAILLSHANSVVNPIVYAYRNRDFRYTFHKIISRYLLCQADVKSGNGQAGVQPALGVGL
Procedure: as §1

A1R = molecular target: T3, A1R (Homo sapiens, UniProt P30542); assay: Activity assay of adenosine receptor modulators, A1R cAMP (Table 1); format: cell-based
T3 sequence (P30542 1-326): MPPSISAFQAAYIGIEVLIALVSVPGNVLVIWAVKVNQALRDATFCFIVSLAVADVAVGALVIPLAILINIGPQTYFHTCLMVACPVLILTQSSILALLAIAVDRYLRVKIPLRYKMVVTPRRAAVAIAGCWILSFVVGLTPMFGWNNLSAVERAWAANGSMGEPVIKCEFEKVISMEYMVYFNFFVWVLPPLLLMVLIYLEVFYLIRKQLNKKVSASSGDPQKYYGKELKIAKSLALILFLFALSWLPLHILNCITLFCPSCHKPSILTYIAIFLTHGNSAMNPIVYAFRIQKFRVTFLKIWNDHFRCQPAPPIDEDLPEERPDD
Procedure: as §1

Sequence of Adenosine A2A Receptor (P29274 whole entry): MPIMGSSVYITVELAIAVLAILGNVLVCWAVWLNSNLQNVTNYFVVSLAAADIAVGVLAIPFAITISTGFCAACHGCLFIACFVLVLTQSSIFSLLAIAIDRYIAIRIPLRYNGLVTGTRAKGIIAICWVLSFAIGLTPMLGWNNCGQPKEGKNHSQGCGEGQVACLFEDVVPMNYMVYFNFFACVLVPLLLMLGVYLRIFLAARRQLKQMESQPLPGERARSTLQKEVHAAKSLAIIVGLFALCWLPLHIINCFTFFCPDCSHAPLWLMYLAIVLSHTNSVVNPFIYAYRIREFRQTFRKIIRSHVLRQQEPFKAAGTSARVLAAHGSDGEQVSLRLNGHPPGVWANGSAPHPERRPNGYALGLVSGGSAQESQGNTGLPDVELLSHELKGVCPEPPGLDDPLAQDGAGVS

IC50 (A3R) [nM] | IC50 (Adenosine A2A Receptor) [nM] | IC50 (Adenosine A2B Receptor) [nM] | IC50 (A1R) [nM] | Compound
100 to 1000 | 100 to 1000 | < 100 | > 1000 | Cc1nc2nc(N[C@@H](C)c3cncc(F)c3)nc(C(=O)N3CCCC3)c2s1 [Example 1, (S)-(5-((1-(5-Fluoropyridin-3-yl)ethyl)amino)-2-methylthiazolo[4,5-d]pyrimidin-7-yl)(pyrrolidin-1-yl)methanone]
100 to 1000 | 100 to 1000 | < 100 | > 1000 | Cc1nc2nc(N[C@@H](C)c3cncc(F)c3)nc(C(=O)N3CCC3)c2s1 [Example 2, (S)-Azetidin-1-yl(5-((1-(5-fluoropyridin-3-yl)ethyl)amino)-2-methylthiazolo[4,5-d]pyrimidin-7-yl)methanone]
100 to 1000 | 100 to 1000 | < 100 | 100 to 1000 | Cc1nc2nc(N[C@@H](C)c3cncc(F)c3)nc(C(=O)NC[C@@H](C)O)c2s1 [Example 3, 5-(((S)-1-(5-Fluoropyridin-3-yl)ethyl)amino)-N—((R)-2-hydroxypropyl)-2-methylthiazolo[4,5-d]pyrimidine-7-carboxamide]
> 1000 | > 1000 | < 100 | > 1000 | Cc1nc2nc(N[C@@H](C)c3cncc(F)c3)nc(C(=O)N3CC[C@H](O)C3)c2s1 [Example 4, (5-(((S)-1-(5-Fluoropyridin-3-yl)ethyl)amino)-2-methylthiazolo[4,5-d]pyrimidin-7-yl)((S)-3-hydroxypyrrolidin-1-yl)methanone]
100 to 1000 | > 1000 | < 100 | 100 to 1000 | Cc1nc2nc(N[C@@H](C)c3cncc(F)c3)nc(C(=O)NC[C@H](C)O)c2s1 [Example 5, 5-(((S)-1-(5-Fluoropyridin-3-yl)ethyl)amino)-N—((S)-2-hydroxypropyl)-2-methylthiazolo[4,5-d]pyrimidine-7-carboxamide]
100 to 1000 | 100 to 1000 | < 100 | > 1000 | Cc1nc2nc(N[C@@H](C)c3cccnc3)nc(C(=O)N3CCCC3)c2s1 [Example 6, (S)-(2-Methyl-5-((1-(pyridin-3-yl)ethyl)amino)thiazolo[4,5-d]pyrimidin-7-yl)(pyrrolidin-1-yl)methanone]
> 1000 | 100 to 1000 | < 100 | > 1000 | Cc1nc2nc(N[C@@H](C)c3cncc(F)c3)nc(C(=O)N3CC[C@@H](O)C3)c2s1 [Example 7, (5-(((S)-1-(5-Fluoropyridin-3-yl)ethyl)amino)-2-methylthiazolo[4,5-d]pyrimidin-7-yl)((R)-3-hydroxypyrrolidin-1-yl)methanone]
100 to 1000 | 100 to 1000 | < 100 | > 1000 | Cc1nc2nc(N[C@@H](C)c3ccccn3)nc(C(=O)N3CCC3)c2s1 [Example 8, (S)-Azetidin-1-yl(2-methyl-5-((1-(pyridin-2-yl)ethyl)amino)thiazolo[4,5-d]pyrimidin-7-yl)methanone]
 | 100 to 1000 | < 100 |  | Cc1nc2nc(N[C@@H](C)c3ccccn3)nc(C(=O)NC(C)C)c2s1 [Example 10, (S)—N-Isopropyl-2-methyl-5-((1-(pyridin-2-yl)ethyl)amino)thiazolo[4,5-d]pyrimidine-7-carboxamide]
 | > 1000 | < 100 |  | Cc1nc2nc(N[C@@H](C)c3ccccn3)nc(C(=O)N3CC[C@@H](O)C3)c2s1 [Example 19, ((R)-3-Hydroxypyrrolidin-1-yl)(2-methyl-5-(((S)-1-(pyridin-2-yl)ethyl)amino)thiazolo[4,5-d]pyrimidin-7-yl)methanone]
 | > 1000 | 100 to 1000 |  | C[C@H](Nc1nc(C(=O)N2CCCC2)c2sc(N)nc2n1)c1cccnc1 [Example 20, (S)-(2-Amino-5-((1-(pyridin-3-yl)ethyl)amino)thiazolo[4,5-d]pyrimidin-7-yl)(pyrrolidin-1-yl)methanone]
 | > 1000 | 100 to 1000 |  | Cc1nc2nc(N[C@@H](C)c3cncc(F)c3)nc(C(=O)NCCC3CCN(C(=O)OC(C)(C)C)CC3)c2s1 [Example 22, tert-Butyl (S)-4-(2-(5-((1-(5-fluoropyridin-3-yl)ethyl)amino)-2-methylthiazolo[4,5-d]pyrimidine-7-carboxamido)ethyl)piperidine-1-carboxylate]
 | 100 to 1000 | < 100 |  | Cc1nc2nc(N[C@@H](C)c3cncc(F)c3)nc(C(=O)NCc3cccnc3)c2s1 [Example 23, (S)-5-((1-(5-Fluoropyridin-3-yl)ethyl)amino)-2-methyl-N-(pyridin-3-ylmethyl)thiazolo[4,5-d]pyrimidine-7-carboxamide]
 | > 1000 | < 100 |  | Cc1nc2nc(N[C@@H](C)c3cncc(F)c3)nc(C(=O)N3CC(C(=O)N(C)C)C3)c2s1 [Example 26, (S)-1-(5-((1-(5-Fluoropyridin-3-yl)ethyl)amino)-2-methylthiazolo[4,5-d]pyrimidine-7-carbonyl)-N,N-dimethylazetidine-3-carboxamide]
 | 100 to 1000 | 100 to 1000 |  | Cc1nc2nc(N[C@@H](C)c3cccnc3)nc(C(=O)N[C@@H](C)c3cccnc3)c2s1 [Example 27, 2-Methyl-N—((S)-1-(pyridin-3-yl)ethyl)-5-(((S)-1-(pyridin-3-yl)ethyl)amino)thiazolo[4,5-d]pyrimidine-7-carboxamide]
 | > 1000 | 100 to 1000 |  | Cc1nc2nc(N[C@@H](C)c3cncc(F)c3)nc(C(=O)N3CCN(C(=O)CC(C)(C)C)C3)c2s1 [Example 34, (S)-1-(3-(5-((1-(5-Fluoropyridin-3-yl)ethyl)amino)-2-methylthiazolo[4,5-d]pyrimidine-7-carbonyl)imidazolidin-1-yl)-3,3-dimethylbutan-1-one]
 | 100 to 1000 | 100 to 1000 |  | Cc1nc2nc(N[C@@H](C)c3cncc(F)c3)nc(C(=O)N3CCN(C(=O)NC(C)(C)C)C3)c2s1 [Example 35, (S)—N-(tert-Butyl)-3-(5-((1-(5-fluoropyridin-3-yl)ethyl)amino)-2-methylthiazolo[4,5-d]pyrimidine-7-carbonyl)imidazolidine-1-carboxamide]
 | 100 to 1000 | > 1000 |  | Cc1nc2nc(N[C@@H](C)c3cncc(F)c3)nc(C(=O)NCCNC(=O)NC(C)(C)C)c2s1 [Example 36, (S)—N-(2-(3-(tert-butyl)ureido)ethyl)-5-((1-(5-fluoropyridin-3-yl)ethyl)amino)-2-methylthiazolo[4,5-d]pyrimidine-7-carboxamide]
 | > 1000 | 100 to 1000 |  | Cc1nc2nc(N[C@@H](C)c3cncc(F)c3)nc(C(=O)N3CC[C@@H](N)C3)c2s1 [Example 42, ((R)-3-Aminopyrrolidin-1-yl)(5-(((S)-1-(5-fluoropyridin-3-yl)ethyl)amino)-2-methylthiazolo[4,5-d]pyrimidin-7-yl)methanone]
 | > 1000 | 100 to 1000 |  | Cc1nc2nc(N[C@@H](C)c3cncc(F)c3)nc(C(=O)N3CC[C@H](N)C3)c2s1 [Example 43, ((S)-3-Aminopyrrolidin-1-yl)(5-(((S)-1-(5-fluoropyridin-3-yl)ethyl)amino)-2-methylthiazolo[4,5-d]pyrimidin-7-yl)methanone]
 | > 1000 | 100 to 1000 |  | CC(=O)N(C)C1CN(C(=O)c2nc(N[C@@H](C)c3cncc(F)c3)nc3nc(C)sc23)C1 [Example 44, (S)—N-(1-(5-((1-(5-Fluoropyridin-3-yl)ethyl)amino)-2-methylthiazolo[4,5-d]pyrimidine-7-carbonyl)azetidin-3-yl)-N-methylacetamide]
 | 100 to 1000 | 100 to 1000 |  | Cc1nc2nc(N[C@@H](C)c3cncc(F)c3)nc(C(=O)N3CC(NC(=O)C4CCOC4)C3)c2s1 (stereo partly drawn) [Example 45, N-(1-(5-(((S)-1-(5-Fluoropyridin-3-yl)ethyl)amino)-2-methylthiazolo[4,5-d]pyrimidine-7-carbonyl)azetidin-3-yl)tetrahydrofuran-3-carboxamide]
 | > 1000 | 100 to 1000 |  | Cc1nc2nc(N[C@@H](C)c3cncc(F)c3)nc(C(=O)NCCN3CCOCC3)c2s1 [Example 46, (S)-5-((1-(5-Fluoropyridin-3-yl)ethyl)amino)-2-methyl-N-(2-morpholinoethyl)thiazolo[4,5-d]pyrimidine-7-carboxamide]
